Assay results: PubChem BioAssay (NCI)
Values joined by “and” are separate entries in the source; they are usually repeats but may differ in a detail not shown here. Equal entries are not always repeated.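 Five compound concentrations were applied to cells in 96-well plates for 48 hours; endpoints were derived by simple linear interpolation of the resulting dose-response curve. Abbreviation: GI50, concentration required for 50% inhibition of growth. TGI marks complete inhibition of growth.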

What was measured:
Experiment in all cases: NCI-60 cell line screen, 48 h
SNB-75 CNS = test system: SNB-75 CNS
UACC-62 melanoma = test system: UACC-62 melanoma
SF-295 CNS = test system: SF-295 CNS
UO-31 renal = test system: UO-31 renal
HCT-116 colon = test system: HCT-116 colon
SW-620 colon = test system: SW-620 colon
OVCAR-8 ovarian = test system: OVCAR-8 ovarian
DU-145 prostate = test system: DU-145 prostate
SNB-19 CNS = test system: SNB-19 CNS
HOP-62 NSCLC = test system: HOP-62 NSCLC

Compound	GI50 (SNB-75 CNS) [µM]	TGI (SNB-75 CNS) [µM]	GI50 (UACC-62 melanoma) [µM]	TGI (UACC-62 melanoma) [µM]	GI50 (SF-295 CNS) [µM]	TGI (SF-295 CNS) [µM]	GI50 (UO-31 renal) [µM]	TGI (UO-31 renal) [µM]	GI50 (HCT-116 colon) [µM]	TGI (HCT-116 colon) [µM]	GI50 (SW-620 colon) [µM]	TGI (SW-620 colon) [µM]	GI50 (OVCAR-8 ovarian) [µM]	TGI (OVCAR-8 ovarian)	GI50 (DU-145 prostate) [µM]	TGI (DU-145 prostate) [µM]	GI50 (SNB-19 CNS) [µM]	TGI (SNB-19 CNS) [µM]	GI50 (HOP-62 NSCLC) [µM]	TGI (HOP-62 NSCLC) [µM]
Nc1ccc2c(c1)C(=O)C(=O)c1c-2nc2ccccn12	1.04	2.28	0.266	0.782	1.53	2.89	1.28	2.64	1.04	2.29	1.8	3.83	1.29	3.23 µM	0.556	1.79	1.64	3.23	–	–
CCCCC[C@H](O)/C=C/[C@@H]1[C@@H](C/C=C\CCCC(=O)O)[C@@H](O)C[C@H]1O	–	–	> 100	> 100	> 100	> 100	> 100	> 100	> 100	> 100	> 100	> 100	> 100	> 100 µM	> 100	> 100	> 100	> 100	–	–
COc1cc2c(cc1O)CC[C@@H]1[C@@H]2CC[C@]2(C)[C@@H](NCCN(C)C)CC[C@@H]12	0.0613	0.378	0.0994	0.274	0.163	0.61	0.43	0.889	0.139	0.522	0.14	0.556	–	–	0.119	0.423	0.4	0.966	0.194	0.717
OC1[C@H]([C@H]2CCCC[C@@H]2O)CCC[C@@H]1[C@@H]1CCCC[C@H]1O (stereo not given in full)	–	> 100	–	> 100	–	> 100	–	> 100	–	> 100	–	> 100	–	> 100 µM	–	–	–	> 100	–	> 100
CCN(CC)CCOCC[C@H]1CC[C@H]2[C@@H]3[C@H](C)Cc4cc(OS(N)(=O)=O)ccc4[C@H]3CC[C@]12C	1.24	3.13	–	–	0.626	2.14	1.54	3.7	0.696	2.08	1.38	2.75	2.05	5.67 µM	1.48	2.94	1.71	3.17	1.43	2.88
CC1CC[C@]2(C(=O)O)CCC3(COC(=O)/C=C\c4ccc(O)cc4)C(=CCC4[C@@]5(C)CC[C@H](O)C(C)(C)C5CC[C@]43C)[C@@H]2[C@H]1C (stereo not given in full)	–	80.9	–	32.6	–	31.7	–	32.1	–	37	–	> 100	–	46.3 µM	–	–	–	32.7	–	–
CN(Cc1cnc2nc(N)nc(N)c2n1)c1ccc(C(=O)NC(CCC(=O)O)C(=O)O)cc1C(F)(F)F (stereo not given)	–	> 100	–	–	–	> 100	–	> 100	–	> 100	–	> 100	–	> 66.7 µM	–	> 100	–	> 100	–	> 100
NC1=NC(=O)/C(=C/c2ccccc2[N+](=O)[O-])C(N)=N1	–	> 100	–	> 100	–	> 100	–	> 100	–	> 100	–	> 100	–	> 100 µM	–	–	–	> 100	–	> 100
CN1N=CSC12C(=O)N(c1ccc(Cl)cc1)C(=O)N2c1ccc(Cl)cc1 (stereo not given)	–	16.5	–	29.1	–	9.16	–	8.08	–	13.3	–	> 100	–	> 100 µM	–	–	–	69.5	–	15.5
Cc1cn(Cc2ccccc2CCO)c(=S)[nH]c1=O	–	> 100	–	> 100	–	> 100	–	> 100	–	–	–	> 100	–	> 100 µM	–	–	–	> 100	–	> 100
COc1cc(/C=C/c2ccncc2)cc(OC)c1OC	–	> 100	–	> 100	–	> 100	–	83.1	–	> 100	–	> 100	–	> 100 µM	–	–	–	> 100	–	> 100
CC(C)(C)NNC(=O)/C(=C/c1ccc([N+](=O)[O-])cc1)NC(=O)c1ccccc1	–	> 100	–	> 100	–	> 100	–	> 100	–	–	–	–	–	> 100 µM	–	–	–	> 100	–	> 100
Cc1cc(N(CCC#N)CCC#N)ccc1/C=C1N=C(/C=C\c2ccccc2)OC\1=O	–	> 100	–	> 100	–	> 100	–	> 100	–	> 100	–	> 100	–	> 100 µM	–	–	–	> 100	–	> 100
NC(=O)NNCc1ccccc1	–	–	–	> 100	–	> 100	–	> 100	–	> 100	–	> 100	–	> 100 µM	–	> 100	–	> 100	–	> 100
CC(C)(C)OC1=C(OC(C)(C)C)C(O)(c2ccccc2)C1=O (stereo not given)	–	> 100	–	> 100	–	> 100	–	> 100	–	–	–	> 100	–	> 100 µM	–	–	–	> 100	–	–
C[N+](C)(C)CC1CCCC/C1=N\OC(=O)c1ccccc1 (stereo not given)	–	> 100	–	> 100	–	> 100	–	> 100	–	> 100	–	> 100	–	> 100 µM	–	–	–	> 100	–	> 100
CN1C(=O)CC(c2cccc(C3CC(=O)N(C)C3=O)n2)C1=O (stereo not given)	–	> 100	–	> 100	–	> 100	–	> 100	–	> 100	–	> 100	–	> 100 µM	–	–	–	> 100	–	> 100
O=C(Nc1c(O)[nH]c(=S)[nH]c1=O)c1ccccc1F	–	> 100	–	> 100	–	> 100	–	> 100	–	> 100	–	> 100	–	> 100 µM	–	–	–	> 100	–	> 100
COc1ccc(C2CC(=O)c3c(O)cc(O)cc3O2)cc1O (stereo not given)	–	> 100	–	> 100	–	> 100	–	> 100	–	> 100	–	> 100	–	> 100 µM	–	–	–	> 100	–	> 100
Cc1ccc(S(=O)(=O)N[C@H](C(=O)O)c2ccccc2)cc1	–	> 100	–	> 100	–	> 100	–	> 100	–	–	–	> 100	–	> 100 µM	–	–	–	> 100	–	–

Compound	GI50 (SNB-75 CNS) [µM]	TGI (SNB-75 CNS) [µM]	GI50 (UACC-62 melanoma) [µM]	TGI (UACC-62 melanoma) [µM]	GI50 (SF-295 CNS) [µM]	TGI (SF-295 CNS) [µM]	GI50 (UO-31 renal) [µM]	TGI (UO-31 renal) [µM]	GI50 (HCT-116 colon) [µM]	TGI (HCT-116 colon) [µM]	GI50 (SW-620 colon) [µM]	TGI (SW-620 colon) [µM]	GI50 (OVCAR-8 ovarian) [µM]	TGI (OVCAR-8 ovarian)	GI50 (DU-145 prostate) [µM]	TGI (DU-145 prostate) [µM]	GI50 (SNB-19 CNS) [µM]	TGI (SNB-19 CNS) [µM]	GI50 (HOP-62 NSCLC) [µM]	TGI (HOP-62 NSCLC) [µM]
Cc1ccc2c(c1)C(C)Cc1c(ncnc1-n1cnc3ccccc31)N2C (stereo not given)	0.3	20.1	–	–	0.189	11.8	0.939	17.9	0.407	11.9	0.281	17	0.592	32.7 µM	0.529	14.4	0.537	21	0.433	16
CN(C)c1ccc2c(=O)c3ccccc3oc2n1	–	> 100	–	> 100	–	> 100	–	> 100	–	–	–	> 100	–	> 100 µM	–	–	–	> 100	–	> 100
O=C(Nc1ccccc1-c1n[nH]c(=S)[nH]c1=O)C(F)(F)F	–	> 100	–	> 100	–	> 100	–	> 100	–	> 100	–	> 100	–	> 100 µM	–	–	–	> 100	–	> 100
CCOc1ccccc1NC(=O)CC1C(=O)Nc2ccccc2S1=O (stereo not given)	–	> 100	–	> 100	–	> 100	–	> 100	–	> 100	–	> 100	–	> 100 µM	–	–	–	> 100	–	–
CS/C(=N\C(=S)N(C)C)N(c1ccccc1)c1nc(=[N+](C)C)ss1	–	19.1	–	19.2	–	57.4	–	> 100	–	21.7	–	16.3	–	28.1 µM	–	–	–	> 100	–	52.9
O=C(/C=C/c1ccc(OCCCOc2ccc(/C=C/C(=O)c3ccccc3)cc2)cc1)c1ccccc1	–	> 100	–	> 100	–	> 100	–	> 100	–	> 100	–	> 100	–	> 100 µM	–	–	–	> 100	–	> 100
COc1ccc(C2CC(c3cc(OC)c(OC)c(OC)c3)=NO2)cc1OCCCCOc1cc2c(cc1OC)C(=O)N1CCC[C@H]1C=N2 (stereo not given in full)	1.71	3.29	1.52	2.85	–	–	2.09	6.26	1.7	3.89	1.55	3.15	2.55	7.74 µM	2.48	7.43	1.96	4.97	1.68	3.43
N#Cc1ccccc1NC(=O)/C(=N\N)C(C(=O)c1ccncc1)C1OC(=O)c2ccccc21 (stereo not given)	–	–	–	> 100	–	> 100	–	> 100	–	> 100	–	> 100	–	> 100 µM	–	–	–	> 100	–	> 100
COc1ccccc1/C=C(\C#N)c1ccccc1	–	60	–	> 100	–	> 100	–	97.5	–	> 100	–	> 100	–	> 100 µM	–	–	–	–	–	> 100
Cc1ccc(NC(=O)c2cc3cc(N=Nc4ccc(Br)cc4)ccc3oc2=O)cc1	–	> 100	–	–	–	> 100	–	–	–	> 100	–	> 100	–	–	–	–	–	> 100	–	–
Cc1ccc(S(=O)(=O)c2c(N)c3nc4ccccc4n3c3nc4ccccc4nc23)cc1	–	> 100	–	> 100	–	> 100	–	> 100	–	> 100	–	> 100	–	> 100 µM	–	–	–	> 100	–	> 100
C=C1C(=O)O[C@H]2[C@H]1CC/C(CNC(=O)Cc1c[nH]c3ccccc13)=C\CC[C@@]1(C)O[C@@H]21	12.8	35.5	–	–	13	26.6	6	19.3	0.533	2.55	0.352	1.37	1.12	12.4 µM	0.834	12.3	15	35.2	5.06	19.7
N=C(N)c1ccc(OCc2cccc(COc3ccc(C(=N)N)cc3)c2)cc1	11.3	31.2	2.17	7.99	2.82	9.35	42.1	> 100	5.22	16.9	5.64	21.3	11.3	38.4 µM	6.12	20.3	5.75	> 100	–	–
O=C1[C@@H]2C(c3ccccc3Br)=NO[C@@H]2C(=O)N1c1ccc(Cc2ccc(N3C(=O)[C@H]4C(c5ccccc5Br)=NO[C@H]4C3=O)cc2)cc1	–	> 100	–	> 100	–	> 100	–	> 100	–	–	–	> 100	–	> 100 µM	–	–	–	–	–	> 100
COc1cc(C2c3[nH]c4ccccc4c3C[C@H]3COC(=O)N23)cc(OC)c1OC (stereo not given in full)	< 0.01	> 100	< 0.01	> 100	–	–	< 0.01	50.1	–	–	< 0.01	> 100	< 0.01	1.71 µM and 0.389 µM	–	6.25	–	3.16	< 0.01	–
O=C(Nc1ccc(Cl)cc1Cl)C1C(=O)N(c2ccc(Cl)cc2Cl)C(=O)/C1=N\Nc1ccc([N+](=O)[O-])cc1[N+](=O)[O-] (stereo not given)	–	97.7	–	> 100	–	> 100	–	> 100	–	> 100	–	> 100	–	> 100 µM	–	–	–	> 100	–	> 100
CCSCC1CC(O)(c2ccccc2)C(c2ccccc2)C(c2ccc(Cl)cc2)O1 (stereo not given)	1.75	4.72	1.4	3.01	1.56	3.73	1.07	2.43	1.21	2.58	1.82	4.39	2.27	5.37 µM	1.99	4.4	–	–	1.85	3.6
COC(=O)C1=C(c2ccc(OC)c(OC)c2)OC(c2ccc(OC)c(OC)c2)C1 (stereo not given)	–	> 100	–	> 100	–	> 100	–	> 100	–	> 100	–	> 100	–	> 100 µM	–	–	–	–	–	> 100
C/C(CN1C(=O)c2ccccc2C1=O)=N\NS(=O)(=O)c1ccc(C)cc1	–	> 100	–	> 100	–	> 100	–	> 100	–	> 100	–	> 100	–	> 100 µM	–	–	–	> 100	–	> 100
